Assay [1] has as its system human tumor NSCLC A549 cell line. The assay is described as follows: MTT assay against human tumor NSCLC A549 cell line. In kind it is cell-based. The text has this: (§1) The following in vitro results are activities of some compounds in present invention against human tumor NSCLC A549 cell line and colon LOVO cell line in MTT assay.
A general note: Formazan colour is commonly taken as a measure of viable cells.

The test system of assay [2] is colon LOVO cell line. The experiment in a line: MTT assay against colon LOVO cell line. In kind it is cell-based, human.
Text: as §1

For the molecule `COc1cc2ncnc(Nc3ccc(Cl)c(Cl)c3)c2cc1OCCN1CC2(CC2)C2(C1)OCCO2` [Example 33, N-(3,4-dichlorophenyl)-7-methoxy-6-[2-(5,8-Dioxa-10-azadispiro[2.0.4.3]undecane)ethoxy]quinazolin-4-amine], the IC50 in assay [1] turned out to be 0.0519 nM; in assay [2] it was 0.118 nM.

As to `COc1cc2ncnc(Nc3ccc(F)c(Cl)c3)c2cc1OCCN1CC2(CC2)C2(C1)OCC(C)(C)CO2` [Example 39, N-(3-chloro-4-fluorophenyl)-7-methoxy-6-[2-(5,9-Dioxa-7,7-dimethyl-11-azadispiro[2.0.4.3]dodecane)ethoxy]quinazolin-4-amine], the IC50 in assay [1] was found to be 0.023 nM; in assay [2], 0.03 nM.

Regarding `COc1cc2ncnc(Nc3cccc(C(F)(F)F)c3)c2cc1OCCN1CC2(CC2)C2(C1)OCCO2` [Example 31, N-(3-trifluoromethylphenyl)-7-methoxy-6-[2-(5,8-Dioxa-10-azadispiro[2.0.4.3]undecane)ethoxy]quinazolin-4-amine], the values for the IC50 in assay [1] and in assay [2] were 0.0546 nM and 0.098 nM, respectively.

For the molecule `COc1cc2c(Nc3ccc(Br)cc3F)ncnc2cc1OCCN1CC2(CC2)C2(C1)OCCO2` [Example 36, N-(2-fluoro-4-bromophenyl)-6-methoxy-7-[2-(5,8-Dioxa-10-azadispiro[2.0.4.3]undecane)ethoxy]quinazolin-4-amine], the IC50 in assay [1] amounted to 0.022 nM; in assay [2], 0.057 nM.

As for `COc1cc2ncnc(Nc3ccc(F)c(Cl)c3)c2cc1OCCN1CC(OC)C2(CC2)C1` (centres unmarked) [Example 27, N-(3-chloro-4-fluorophenyl)-7-methoxy-6-[2-(7-methoxy-5-azaspiro[2.4]heptane)ethoxy]quinazolin-4-amine], the IC50 stood at 0.212 nM in assay [1] and 0.0978 nM in assay [2].

For the molecule `COc1cc2ncnc(Nc3ccc(F)c(Cl)c3)c2cc1OCCN1CC(=O)C2(CC2)C1` [Example 23, N-(3-chloro-4-fluorophenyl)-7-methoxy-6-[2-(5-azaspiro[2.4]heptan-7-one)ethoxy]quinazolin-4-amine], the IC50 in assay [1] was found to be 0.0893 nM; in assay [2], 0.219 nM.

For `COc1cc2ncnc(Nc3ccc(F)c(Cl)c3)c2cc1OCCN1CC(O)C2(CC2)C1` (centres unmarked) [Example 25, N-(3-chloro-4-fluorophenyl)-7-methoxy-6-[2-(5-azaspiro[2.4]heptan-7-ol)ethoxy]quinazolin-4-amine], the IC50 in assay [1] turned out to be 0.0573 nM; in assay [2] it was 0.0954 nM.

In the case of “N-(3-chloro-4-fluorophenyl)-7-methoxy-6-[3-(5,9-Dioxa-11-azadispiro[2.0.4.3]dodecane)propoxy]quinazolin-4-amine [Example 40]”, the IC50 in assay [1] was determined as 0.042 nM; in assay [2], 0.029 nM.

For `COc1cc2c(Nc3ccc(Br)cc3F)ncnc2cc1OCCCN1CC2(CC2)C2(C1)OCCO2` [Example 35, N-(2-fluoro-4-bromophenyl)-6-methoxy-7-[3-(5,8-Dioxa-10-azadispiro[2.0.4.3]undecane)propoxy]quinazolin-4-amine], the IC50 in assay [1] turned out to be 0.0402 nM; in assay [2], 0.0318 nM.

Regarding `COc1cc2ncnc(Nc3ccc(F)c(Cl)c3)c2cc1OCCCN1CC(O)C2(CC2)C1` (centres unmarked) [Example 24, N-(3-chloro-4-fluorophenyl)-7-methoxy-6-[3-(5-azaspiro[2.4]heptan-7-ol)propoxy]quinazolin-4-amine], the IC50 was determined as 0.0375 nM in assay [1] and 0.165 nM in assay [2].

Turning to `COc1cc2ncnc(Nc3ccc(F)c(Cl)c3)c2cc1OCCCN1CC(OC)C2(CC2)C1` (centres unmarked) [Example 26, N-(3-chloro-4-fluorophenyl)-7-methoxy-6-[3-(7-methoxy-5-azaspiro[2.4]heptane)propoxy]quinazolin-4-amine], the IC50 was found to be 0.091 nM in assay [1] and 0.0376 nM in assay [2].

As for `COc1cc2ncnc(Nc3cccc(Br)c3)c2cc1OCCN1CC2(CC2)C2(C1)OCCO2` [Example 32, N-(3-bromophenyl)-7-methoxy-6-[2-(5,8-Dioxa-10-azadispiro[2.0.4.3]undecane)ethoxy]quinazolin-4-amine], the IC50 worked out at 0.028 nM in assay [1] and 0.032 nM in assay [2].

With `COc1cc2ncnc(Nc3ccc(F)c(Cl)c3)c2cc1OCCCN1CC2(CC2)C2(C1)OCC(C)(C)CO2` [Example 41, N-(3-chloro-4-fluorophenyl)-7-methoxy-6-[3-(5,9-Dioxa-7,7-dimethyl-11-azadispiro[2.0.4.3]dodecane)propoxy]quinazolin-4-amine], the IC50 in assay [1] is 0.075 nM; in assay [2], 0.129 nM.

As to `COc1cc2ncnc(Nc3ccc(F)c(Cl)c3)c2cc1OCCCN1CC2(CC2)C2(C1)OCCO2` [Example 20, N-(3-chloro-4-fluorophenyl)-7-methoxy-6-[3-(5,8-Dioxa-10-azadispiro[2.0.4.3]undecane)propoxy]quinazolin-4-amine], the IC50 amounted to 0.0619 nM in assay [1] and 0.0375 nM in assay [2].

Turning to `COc1cc2ncnc(Nc3ccc(F)c(Cl)c3)c2cc1OCCN1CC2(CC2)C2(C1)OCCCO2` [Example 38, N-(3-chloro-4-fluorophenyl)-7-methoxy-6-[2-(5,9-Dioxa-11-azadispiro[2.0.4.3]dodecane)ethoxy]quinazolin-4-amine], the IC50 in assay [1] was 0.073 nM; in assay [2], 0.143 nM.

For `C#Cc1cccc(Nc2ncnc3cc(OC)c(OCCN4CC(O)C5(CC5)C4)cc23)c1` (centres unmarked) [Example 30, N-(3-ethynylphenyl)-7-methoxy-6-[2-(5-azaspiro[2.4]heptan-7-ol)ethoxy]quinazolin-4-amine], the IC50 in assay [1] is 0.0749 nM; in assay [2], 0.0272 nM.

As for `COc1cc2ncnc(Nc3ccc(F)c(Cl)c3)c2cc1OCCCN1CC2(CC2)C2(C1)OCCS2` (centres unmarked) [Example 34, N-(3-chloro-4-fluorophenyl)-7-methoxy-6-[3-(5,8-Oxathiolane-10-azadispiro[2.0.4.3]undecane)propoxy]quinazolin-4-amine], the results for the IC50 in assay [1] and in assay [2] were 0.034 nM and 0.171 nM, respectively.

Take `C#Cc1cccc(Nc2ncnc3cc(OC)c(OCCN4CC(=O)C5(CC5)C4)cc23)c1` [Example 29, N-(3-ethynylphenyl)-7-methoxy-6-[2-(5-azaspiro[2.4]heptan-7-one)ethoxy]quinazolin-4-amine]: the IC50 in assay [1] came out at 0.104 nM; in assay [2] it was 0.0934 nM.

Regarding `COc1cc2ncnc(Nc3ccc(F)c(Cl)c3)c2cc1OCCN1CC2(CC2)C2(C1)OCCO2` [Example 21, N-(3-chloro-4-fluorophenyl)-7-methoxy-6-[2-(5,8-Dioxa-10-azadispiro[2.0.4.3]undecane)ethoxy]quinazolin-4-amine], the IC50 amounted to 0.0421 nM in assay [1] and 0.139 nM in assay [2].

Regarding `C#Cc1cccc(Nc2ncnc3cc(OC)c(OCCN4CC5(CC5)C5(C4)OCCO5)cc23)c1` [Example 28, N-(3-ethynylphenyl)-7-methoxy-6-[2-(5,8-Dioxa-10-azadispiro[2.0.4.3]undecane)ethoxy]quinazolin-4-amine], the IC50 in assay [1] amounted to 0.096 nM; in assay [2] it was 0.0376 nM.

For `COc1cc2ncnc(Nc3ccc(F)c(Cl)c3)c2cc1OCCN1CC2(CC2)C2(C1)OCCS2` (centres unmarked) [Example 37, N-(3-chloro-4-fluorophenyl)-7-methoxy-6-[2-(5,8-Oxathiolane-10-azadispiro[2.0.4.3]undecane)ethoxy]quinazolin-4-amine], the concentration for half-maximal inhibition (IC50) in assay [1] was determined as 0.132 nM; in assay [2] it was 0.0553 nM.

`COc1cc2ncnc(Nc3ccc(F)c(Cl)c3)c2cc1OCCCN1CC(=O)C2(CC2)C1` [Example 22, N-(3-chloro-4-fluorophenyl)-7-methoxy-6-[3-(5-azaspiro[2.4]heptan-7-one)propoxy]quinazolin-4-amine]: the IC50 came out at 0.0359 nM in assay [1] and 0.0329 nM in assay [2].

The IC50 is the concentration needed to halve the response being measured. A high value points to weaker potency in that assay.

Source of the values: patent US7977346B2, “Spiro compounds and methods of use” (priority 2006, dated 2011).
